For orientation: Kd means the concentration at which binding is half-saturated. The logP is a log measure of how a compound divides between an organic and an aqueous phase. Lower therefore signals lower lipophilicity.

Entries after “also recorded” stand apart in the source; their conditions may differ.

One data set has as its target T1, preformed Aβ1-42 fibrils (Homo sapiens, UniProt P05067).
T1 construct: preformed Aβ1-42 fibrils
Kind of data set: Binding assay with preformed Aβ1-42 fibrils/aggregates in PBS (fluorescence). The following applies: PBS. An excerpt: In some embodiments of the present teachings, binding assays to preformed fibrils or AD brain homogenate extracts can be performed using literature procedures (Klunk, W., et al. Uncharged thioflavin-T derivatives bind to amyloid-beta protein with high affinity and readily enter the brain. Life Sci 69, 1471-1484 (2001); Zhen, W., et al. Synthesis and amyloid binding properties of rhenium complexes: preliminary progress towards a reagent for SPECT imaging of Alzheimer's disease brain. J Med Chem 42, 2805-2815 (1999)). Prior to binding assays, the stock solution (2 μM) can be thawed. To aliquots of this stock solution, ^18F-AI-182 (also exemplified for either ^18F-AI-183 or ^18F-AI-187) can be added at various concentrations to a final concentration of 200 nM Aβ fibrils or 200 μL of AD brain extracts (20-25 μg). The aggregate-bound ^18F-AI-182 (or other analogues) can be collected on Whatman GF filters using Brandon M-24R cell harvester, washed, and counted in a γ-counter (Perkin Elmer). Inhibition constants (Ki) can be calculated as described previously (Han, H., Cho, C. & Lansbury, P. J. Technetium complexes for quantification of brain amyloid. J Am Chem Soc 118, 4506-4508 (1996)). Binding assay results can assist in evaluation of target specificity.
Binding assays of F-AI-182 with preformed Aβ1-42 aggregates were performed in PBS. […] Fluorescence was not observed using Aβ aggregates alone in PBS upon excitation at 410 nm (a negative control). […] Comparative analyses can be performed with other compounds such as AV-45, BAYER 94-9172, and AZD4694. An agent can be interacting with either of the two modestly high affinity binding sites (BS1& BS2) or recognizing an entirely new site on Aβ1-42. F-AI-182 can register different complementary binding sites in relation to Aβ-pathophysiology compared to current agents.

Data set [1] concerns the target T2, Aβ plaques (Homo sapiens, UniProt P05067).
T2 construct: from tissue; host or cells: brain of APPsw+/-/PS1 (and APPsw+/-) transgenic mice: sections ex vivo, and live animals for multiphoton imaging
The experiment in a line: Ex vivo staining of mouse brain sections. The data set is classed as binding. The settings on record: 24 months. As to the method:
FIG. 2 illustrates ex vivo staining studies were performed on brain sections (50 μm) of an APPsw^+/−/PS1 mouse (24 months old) and a control WT mouse (BL/6; 24 months old) using well-established procedures. Briefly, tissue sections were immunostained with mouse monoclonal antibody and visualized by donkey-anti-mouse HJ3.4 Aβ monoclonal antibody-Alexa 568 as a positive control. […] By comparison, no staining in WT mice was seen either with F-AI-182 or the antibody indicating the targeting specificity of F-AI-182. The slides were analyzed on a Zeiss LSM 5 PASCAL confocal system coupled to a Zeiss Axiovert 200 microscope.
The slides were analyzed using a Nikon Ti-E PFS inverted microscope equipped with a Nikon 10x 0.3 NA Plan APO objective, Prior H117 ProScan flat top linear encoded stage, and Prior Lumen 200PRO illumination system with standard DAPI and FITC filter sets. The images were acquired using a Photometrics CoolSNAP HQ2 digital camera and MetaMorph microscopy automaton, and imaging software. Images were processed and analyzed using the Image J software package (NIH).

Data set [2] deals with T2, Aβ plaques. Kind of data set: Multiphoton imaging in live APP/PS1 mice. Type of data set: in vivo, mouse. As to the method:
Prior to imaging, dextran-Texas Red was injected for mapping the blood vessels. Following labeling of blood vessels, F-AI-182 (2 mg/kg, dissolved in DMSO/PEG; 20:80) was intravenously injected. A z-stack image series was acquired from cortex surface to a depth of approx. 100 μm using microscope LSM 510META NLO (Carl-Zeiss Inc). […] The labeling of brain parenchymal plaques was visible within 10 min, indicating facile clearance from non-targeted regions and remained labeled for 30 min (FIG. 6). Multi-photon imaging can be done using ^18F-AI-182, other agents, or second generation agents (Bacskai, B., et al. Four-dimensional multiphoton imaging of brain entry, amyloid binding and clearance of an amyloid-3 ligand in transgenic mice. Proc Natl Acad Sci USA 100, 12462-12467 (2003)).

A further data set is described as follows: Hydrophobicity (log P). The data set is classed as physicochemical.
In data set [3] the test system is Human Glioblastoma (U87) Cells. Kind of data set: Live cell fluorescence imaging. Type of data set: cell-based. The following applies: 5 μM, 37° C., 30 min. The procedure:
(§1) In these experiments, human carcinoma cells were incubated with AI-182
(§2) (5 μM) at 37° C. in the presence of 5% CO2 for 30 min, and examined using a Nikon Ti-E PFS inverted high resolution microscope equipped with a Nikon (Magnification: 20×) Plan APO objective, Prior H117 ProScan flat top linear encoded stage, and Prior Lumen 200PRO illumination system with standard DAPI and FITC filter sets. Top row: Live Cell Imaging of Human Glioblastoma (U87) Cells Using AI-182. Middle row: Live Cell Imaging of Human Pancreatic Cancer Cells (PANC1) Using AI-182. Bottom row: Live Cell Imaging of Human Pancreatic Cancer Cells (Mia PaCa-2) Using AI-182.

The test system of data set [4] is Human Pancreatic Cancer Cells (PANC1). Kind of data set: Live cell fluorescence imaging. The data set is classed as cell-based. The settings on record: 5 μM, 37° C., 30 min. The procedure:
as §1, §2

Data set [5] relates to Human Pancreatic Cancer Cells (Mia PaCa-2). The experiment in a line: Live cell fluorescence imaging. The following applies: 5 μM, 37° C., 30 min. Type of data set: cell-based. The procedure:
as §1, §2

In data set [6] the test system is Aβ plaques. Kind of data set: Staining of human AD brain tissue sections. Type of data set: binding. The following applies: person with AD; 50 nM. The procedure:
Staining experiments were performed with human brain tissues. Tissue samples were obtained from the frontal lobe of clinically and neuropathologically well-characterized cases. The neuropathological diagnosis of AD was based on the criteria of the Consortium to Establish a Registry for Alzheimer's Disease (CERAD) (Mirra, S., et al. The Consortium to Establish a Registry for Alzheimer's Disease (CERAD). Part II. Standardization of the neuropathologic assessment of Alzheimer's disease. Neurology 41, 479-486 (1991)) or the National Institute of Aging-Reagan Institute (NIA-RI) (Hyman, B. & Trojanowski, J. Consensus recommendations for the postmortem diagnosis of Alzheimer disease from the National Institute on Aging and the Reagan Institute Working Group on diagnostic criteria for the neuropathological assessment of Alzheimer disease. J Neuropathol Exp Neurol 56, 1095-1097. (1997)). […]
The fluorescent probe (F-AI-183) labels fibrillar amyloid (arrow). The slides were analyzed on a using a Nikon Ti-E PFS inverted microscope equipped with a Nikon 10×0.3 NA Plan APO objective, Prior H117 ProScan flat top linear encoded stage, and Prior Lumen 200PRO illumination system with standard DAPI and FITC filter sets. […] Images were processed and analyzed using the Image J software package (NIH).

T2 sequence (P05067 672-713 limits assumed): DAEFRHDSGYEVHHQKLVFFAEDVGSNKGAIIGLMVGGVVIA
T1 sequence (P05067 672-713 limits assumed): as above

On to `CN(C)c1ccc(/C=C/c2nc3ccc(OCCF)cc3s2)cn1` [F-AI-182], for which the dissociation constant (Kd) on preformed Aβ1-42 fibrils (concentration dependent and saturable binding, read-out: binding constant (Kd) to preformed Aβ1-42 fibrils) was determined as 59 ± 7 nM. In addition, the “fluorescence of 570 nm peak upon incubation with preformed Aβ(1-42) aggregates” value on preformed Aβ1-42 fibrils (excitation 410 nm) is “remarkable enhancement in the fluorescence”. Further, the “staining of plaques in hippocampus and cortical region of brain sections” value at Aβ plaques [1] (APPsw+/−/PS1 mice, 100 nM, 60 min) was “staining of both fibrillar and diffuse plaques; also recorded: stains both fibrillar and diffuse plaques; also recorded: abundant staining of fibrillar and diffuse plaques”. Moreover, the “staining of brain sections of WT mice” value at Aβ plaques [1] (WT BL/6 mouse) is “no staining”. Further, the “time at which labeling of brain parenchymal plaques was visible” value on Aβ plaques [2] (live APP/PS1 mice) was no more than 10 min. Also, on Aβ plaques [2] (live APP/PS1 mice), the “time plaques remained labeled” value is 30 min. Further, at Aβ plaques [2] (live APPsw+/−/PS1 mice, 2 mg/kg i.v., 2 mg/kg), the “labeling of plaques in vivo by multi-photon microscopy” value was “label plaques in brain parenchyma and blood vessels (CAA)”. This molecule showed a logP in “Hydrophobicity (log P)” of 1.2. In addition, the “probe uptake in cells (fluorescence)” value in data set [3], in data set [4] and in data set [5] was “accumulation of the probe within cells” throughout. Besides, in the data set on Aβ plaques [6], the “staining of Aβ plaques in human AD brain sections” value was “detect both diffuse and compact AP plaques; also recorded: stains both fibrillar and diffuse plaques; also recorded: abundant staining of Aβ plaques”.

These data come from US10335504B2, “Heterocyclic molecules for biomedical imaging and therapeutic applications” (Washington University, priority 2013, dated 2019).
